The values below come from patent publication US7476691B2, “Sulfamate benzothiophene derivatives as steroid sulfatase inhibitors” (Laboratoire Theramex, priority 2003, dated 2009).

“And” between values parts separate entries of the source, which are not always exact repeats. Identical values can stand only once.

The IC50 is the concentration needed to halve the response being measured. By melting point is commonly meant the temperature of the solid-liquid transition.

One data set addresses T1, estrone sulfatase (Homo sapiens, UniProt P08842).
T1 sequence (P08842 22-583): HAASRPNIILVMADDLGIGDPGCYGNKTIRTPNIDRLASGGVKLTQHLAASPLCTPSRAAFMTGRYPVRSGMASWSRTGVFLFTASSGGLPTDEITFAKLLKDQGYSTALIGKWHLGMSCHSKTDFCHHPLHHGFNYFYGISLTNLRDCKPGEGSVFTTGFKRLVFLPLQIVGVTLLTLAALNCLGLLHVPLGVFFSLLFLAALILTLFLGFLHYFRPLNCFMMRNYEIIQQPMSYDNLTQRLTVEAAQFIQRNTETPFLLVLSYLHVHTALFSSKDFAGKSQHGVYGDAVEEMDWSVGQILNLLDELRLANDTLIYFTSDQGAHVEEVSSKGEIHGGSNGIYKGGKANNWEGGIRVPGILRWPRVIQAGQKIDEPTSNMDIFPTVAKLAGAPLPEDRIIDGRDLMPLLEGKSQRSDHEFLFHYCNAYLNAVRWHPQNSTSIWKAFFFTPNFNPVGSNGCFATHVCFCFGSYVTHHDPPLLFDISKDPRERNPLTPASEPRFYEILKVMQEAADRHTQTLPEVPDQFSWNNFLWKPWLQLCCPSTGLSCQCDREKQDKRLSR
The data set is described as follows: Estrone sulfatase whole-cell assay on JEG-3 cells. Set-up: The JEG-3 cell line, derived from a human placental choriocarcinoma, is spontaneously very rich in human estrone sulfatase; endogenous in cells; host or cells: JEG-3 (human placental choriocarcinoma), intact cells. The note with it: 4 h treatment, 3H-E1S, read-out: IC50 (nM) ± S.E.M., inhibition of estrone sulfatase. The format is cell-based. How it is done:
(§1) Two in vitro models on whole cells were used. […] Moreover, these cells were used in the in vivo model of hormono-dependent induced xenografts.
(§2) Estrone Sulfatase Assay on Cells
(§3) Whole-cell assays were performed as originally described by Duncan et al. (Cancer Res., 1993, 53: 298-303) on intact MCF-7 cell monolayers. Assays were carried out with cells in logarithmic growth phase, on 96-well (JEG-3) or 24-well (MCF-7) microplates. Twenty-four hours (JEG-3) or 72 h (MCF-7) before studies, cells were seeded in decomplemented fetal calf serum (dFCS) supplemented medium. Then, the seeding medium was removed and the cells were rinsed with PBS to eliminate any trace of dFCS. Then, ^3H-E1S was added, followed by test compounds ranging from 10^−12 M to 10^−5 M. After 4 h (JEG-3) or 20 h (MCF-7) of treatment, the medium was transferred into either 96-deep-well microplates (JEG-3) or plastic tubes (MCF-7) and centrifuged at 200×g for 10 min to pellet cells before toluene extraction. A fraction of medium was used for toluene extraction in order to separate conjugated substrate and non-conjugated products. The radioactivity in the toluene phase was measured by liquid scintillation counting (LSC). Finally, estrone sulfatase activity was expressed in pmoles of ^3H-E1+^3H-E2 formed per 4 or 20 hours and per μg DNA and estrone sulfatase inhibition in percentage of control activity without inhibitor.
As to `NS(=O)(=O)Oc1ccc2cc(C3C4CC5CC(C4)CC3C5)sc2c1` (centres unmarked) [Ex 37, Sulfamic acid, 2-(2-adamantyl)-benzothiophene-6-yl ester], the IC50 turned out to be 92.4 ± 15.6 nM.

As for `C[C@]12CCC3c4ccc(OS(N)(=O)=O)cc4CCC3C1CCC2=O` (some centres unmarked) [EMATE, estrone-3-sulfamate, reference compound], the half-inhibitory concentration (IC50) is 3.2 ± 0.2 nM.

`CCCC1=Cc2ccc(OS(N)(=O)=O)cc2S1(=O)=O` [Ex 52, Sulfamic acid, 2-propyl-benzothiophene-6-yl-1,1-dioxide ester]: the 50% inhibitory concentration (IC50) turned out to be 24.7 ± 5 nM.

Turning to `CC1CCC(c2cc3ccc(OS(N)(=O)=O)cc3s2)CC1` (centres unmarked) [Ex 34, Sulfamic acid, 2-(4-methylcyclohexyl)-benzothiophene-6-yl ester], the IC50 worked out at 318 ± 42.9 nM.

As for `CC1CCC(C2=Cc3ccc(OS(N)(=O)=O)cc3S2(=O)=O)CC1` (centres unmarked) [Ex 48, Sulfamic acid, 2-(4-methylcyclohexyl)-benzothiophene-6-yl-1,1-dioxide ester], the IC50 was determined as 7.6 ± 1.3 nM.

On to `Cc1c(OS(N)(=O)=O)ccc2c1S(=O)(=O)C(C1CCCCCC1)=C2` [Ex 65, Sulfamic acid, 2-cycloheptyl-7-methyl-benzothiophene-6-yl-1,1-dioxide ester], for which the 50% inhibitory concentration (IC50) stood at 31.7 ± 9.9 nM.

As to `NS(=O)(=O)Oc1ccc2c(c1)S(=O)(=O)C(C1CCCCCCCCC1)=C2` [Ex 47, Sulfamic acid, 2-cyclodecyl-benzothiophene-6-yl-1,1-dioxide ester], the IC50 amounted to 52.1 ± 4.4 nM.

With `CC1(C)CCCC1c1cc2ccc(OS(N)(=O)=O)cc2s1` (centres unmarked) [Ex 36, Sulfamic acid, 2-(2,2-dimethylcyclopentyl)-benzothiophene-6-yl ester], the IC50 was determined as 128 ± 14.2 nM.

On to `NS(=O)(=O)Oc1ccc2cc(C3CCCC3)sc2c1` [Ex 30, Sulfamic acid, 2-cyclopentyl-benzothiophene-6-yl ester], for which the IC50 was determined as 78.8 ± 39.8 nM.

For `NS(=O)(=O)Oc1ccc2cc(C3CCCCCC3)sc2c1` [Ex 31, Sulfamic acid, 2-cycloheptyl-benzothiophene-6-yl ester], the IC50 came out at 102 ± 58 nM.

In the case of `NS(=O)(=O)Oc1ccc2c(c1)S(=O)(=O)C(CC1CCCCC1)=C2` [Ex 54, Sulfamic acid, 2-cyclohexylmethyl-benzothiophene-6-yl-1,1-dioxide ester], the IC50 is ~10 nM and 10 nM.

For `NS(=O)(=O)Oc1ccc2cc(C3CCCCC3)[s+]([O-])c2c1` (centres unmarked) [Ex 42, Sulfamic acid, 2-cyclohexyl-benzothiophene-6-yl-1-oxide ester], the IC50 turned out to be 7 ± 1.2 nM.

Another data set concerns ovariectomized Wistar female rats. In words: Antiuterotrophic/antisulfatase activity: inhibition of E1S stimulated uterus weight. The note with it: ovariectomized rats, E1S 50 μg/kg/day s.c., compound oral 1 mg/kg/day for 4 days. It counts as in vivo, rat. How it is done: A short model, derived from Purohit's method, was developed for the evaluation in vivo of nonestrogenic steroid sulfatase inhibitors.
Wistar female rats were ovariectomized and left to rest for 4 weeks. Prior to treatment, the absence of cyclicity was checked by vaginal smears.
Animals were supplemented with estrone sulfate (E1S) at 50 μg/kg/day s.c., alone or combined with oral administration of potential sulfatase inhibitors, at 1 mg/kg/day for 4 days. The uteri were removed, freed of adjacent tissue and wet weighed.
The results are expressed as % of inhibition of the E1S induced stimulation.
The activity of Ex 55 on E1S stimulated uterus weight was evaluated in relation to the standard inhibitor 6,6,7 COUMATE from 0.03 mg/kg/day to 1 mg/kg/day p.o.
In this study, a last administration was performed 24 hours before the necropsy for E1S and E2 serum levels assays. The uteri were removed, freed of adjacent tissue, wet weighed and immediately deep frozen until the determination of sulfatase activity.
On to `CC1CCC(C2=Cc3ccc(OS(N)(=O)=O)cc3S2(=O)=O)CC1` (centres unmarked) [Ex 48, Sulfamic acid, 2-(4-methylcyclohexyl)-benzothiophene-6-yl-1,1-dioxide ester], for which the “% inhibition of the E1S induced stimulation (uterus weight)” value (from here on “% inhibition”) is listed as 60%.

For `NS(=O)(=O)Oc1ccc2c(c1)S(=O)(=O)C(C1CCCCCCCCC1)=C2` [Ex 47, Sulfamic acid, 2-cyclodecyl-benzothiophene-6-yl-1,1-dioxide ester], the “% inhibition” value is recorded as 62%.

Take `NS(=O)(=O)Oc1ccc2c(c1)S(=O)(=O)C(CC1CCCCC1)=C2` [Ex 54, Sulfamic acid, 2-cyclohexylmethyl-benzothiophene-6-yl-1,1-dioxide ester]: the “% inhibition” value was 49%.

Regarding `NS(=O)(=O)Oc1ccc2cc(C3CCCCC3)[s+]([O-])c2c1` (centres unmarked) [Ex 42, Sulfamic acid, 2-cyclohexyl-benzothiophene-6-yl-1-oxide ester], the “% inhibition” value is reported as 38%.

A further data set addresses T1, estrone sulfatase. The data set is described as follows: Estrone sulfatase whole-cell assay on MCF-7 cells. The settings on record: 20 h treatment, 3H-E1S, read-out: IC50 (nM) ± S.E.M., inhibition of estrone sulfatase. Also on record: Whole-cell assays were performed as originally described by Duncan et al. (Cancer Res., 1993, 53: 298-303) on intact MCF-7 cell monolayers; endogenous in cells; host or cells: MCF-7 (human breast adenocarcinoma), intact monolayers. The format is cell-based. How it is done:
as §1, §2, §3
On to `C[C@]12CCC3c4ccc(OS(N)(=O)=O)cc4CCC3C1CCC2=O` (some centres unmarked) [EMATE, estrone-3-sulfamate, reference compound], for which the IC50 was determined as 0.06 ± 0.01 nM.

On to `CC1CCC(C2=Cc3ccc(OS(N)(=O)=O)cc3S2(=O)=O)CC1` (centres unmarked) [Ex 48, Sulfamic acid, 2-(4-methylcyclohexyl)-benzothiophene-6-yl-1,1-dioxide ester], for which the IC50 came to 0.09 ± 0.02 nM.

For the compound `NS(=O)(=O)Oc1ccc2c(c1)S(=O)(=O)C(C1CCCCCCCCC1)=C2` [Ex 47, Sulfamic acid, 2-cyclodecyl-benzothiophene-6-yl-1,1-dioxide ester], the IC50 was found to be 0.08 ± 0.01 nM.

On to `NS(=O)(=O)Oc1ccc2c(c1)S(=O)(=O)C(CC1CCCCC1)=C2` [Ex 54, Sulfamic acid, 2-cyclohexylmethyl-benzothiophene-6-yl-1,1-dioxide ester], for which the IC50 is 0.1 ± 0.03 nM.

Turning to `NS(=O)(=O)Oc1ccc2cc(C3CCCCC3)[s+]([O-])c2c1` (centres unmarked) [Ex 42, Sulfamic acid, 2-cyclohexyl-benzothiophene-6-yl-1-oxide ester], the IC50 came to 0.16 ± 0.03 nM.

System in another data set: not given
Assay: not given
Conditions: not given
The compound `NS(=O)(=O)Oc1ccc2cc(C3C4CC5CC(C4)CC3C5)sc2c1` (centres unmarked) [Ex 37, Sulfamic acid, 2-(2-adamantyl)-benzothiophene-6-yl ester] had a melting point of 185 °C.

As to `CCCC1=Cc2ccc(OS(N)(=O)=O)cc2S1(=O)=O` [Ex 52, Sulfamic acid, 2-propyl-benzothiophene-6-yl-1,1-dioxide ester], the melting point amounted to 159 °C.

In turn, `CC1CCC(c2cc3ccc(OS(N)(=O)=O)cc3s2)CC1` (centres unmarked) [Ex 34, Sulfamic acid, 2-(4-methylcyclohexyl)-benzothiophene-6-yl ester] registered a melting point of 132 °C.

On to `CC1CCC(C2=Cc3ccc(OS(N)(=O)=O)cc3S2(=O)=O)CC1` (centres unmarked) [Ex 48, Sulfamic acid, 2-(4-methylcyclohexyl)-benzothiophene-6-yl-1,1-dioxide ester], for which the melting point came to 170 °C.

Take `Cc1c(OS(N)(=O)=O)ccc2c1S(=O)(=O)C(C1CCCCCC1)=C2` [Ex 65, Sulfamic acid, 2-cycloheptyl-7-methyl-benzothiophene-6-yl-1,1-dioxide ester]: the melting point was 90 °C.

For the compound `NS(=O)(=O)Oc1ccc2c(c1)S(=O)(=O)C(C1CCCCCCCCC1)=C2` [Ex 47, Sulfamic acid, 2-cyclodecyl-benzothiophene-6-yl-1,1-dioxide ester], the melting point was 102 °C.

Turning to `CC1(C)CCCC1c1cc2ccc(OS(N)(=O)=O)cc2s1` (centres unmarked) [Ex 36, Sulfamic acid, 2-(2,2-dimethylcyclopentyl)-benzothiophene-6-yl ester], the melting point came out at 72 °C.

Compound `NS(=O)(=O)Oc1ccc2cc(C3CCCC3)sc2c1` [Ex 30, Sulfamic acid, 2-cyclopentyl-benzothiophene-6-yl ester] yielded a melting point of 110 °C.

Compound `NS(=O)(=O)Oc1ccc2cc(C3CCCCCC3)sc2c1` [Ex 31, Sulfamic acid, 2-cycloheptyl-benzothiophene-6-yl ester] had a melting point of 132 °C.

Compound `NS(=O)(=O)Oc1ccc2c(c1)S(=O)(=O)C(CC1CCCCC1)=C2` [Ex 54, Sulfamic acid, 2-cyclohexylmethyl-benzothiophene-6-yl-1,1-dioxide ester] showed a melting point of 132 °C.

The test system of another data set is prepubescent female rats. The data set is described as follows: Residual estrogenic activity in vivo (uterotrophic assay). The settings on record: prepubescent female rats, oral, 1 mg/rat/day for 3 days.
Experimental: These compounds were checked for residual estrogenic activity in vivo in the classical uterotrophic assay after 3-day administration by oral route in prepubescent female rats.
Prepubescent female rats were orally treated at 1 mg/rat/day for 3 days. On the day following the last treatment, uteri were removed and wet weight were recorded.
The results are expressed as % of stimulation of uterus weight in comparison with controls.
`CC1CCC(C2=Cc3ccc(OS(N)(=O)=O)cc3S2(=O)=O)CC1` (centres unmarked) [Ex 48, Sulfamic acid, 2-(4-methylcyclohexyl)-benzothiophene-6-yl-1,1-dioxide ester]: the “% stimulation of uterus weight in comparison with controls” value (shortened to “% stimulation of uterus weight”) was determined as 3%.

Turning to `NS(=O)(=O)Oc1ccc2c(c1)S(=O)(=O)C(C1CCCCCCCCC1)=C2` [Ex 47, Sulfamic acid, 2-cyclodecyl-benzothiophene-6-yl-1,1-dioxide ester], the “% stimulation of uterus weight” value is listed as 4%.

For the compound `NS(=O)(=O)Oc1ccc2c(c1)S(=O)(=O)C(CC1CCCCC1)=C2` [Ex 54, Sulfamic acid, 2-cyclohexylmethyl-benzothiophene-6-yl-1,1-dioxide ester], the “% stimulation of uterus weight” value stood at 6%.

For the compound `NS(=O)(=O)Oc1ccc2cc(C3CCCCC3)[s+]([O-])c2c1` (centres unmarked) [Ex 42, Sulfamic acid, 2-cyclohexyl-benzothiophene-6-yl-1-oxide ester], the “% stimulation of uterus weight” value was 0%.
